Values after ≈ are worked out from the molar mass of the structure shown.
What was measured:
Callosobruchus chinensis [1] = experiment: Insecticidal activity against Callosobruchus chinensis assessed as mortality at 1000 mg/l at 27 +/- 1 degC and 70% RH; format: functional
Callosobruchus chinensis [2] = experiment: Insecticidal activity against Callosobruchus chinensis assessed as mortality at 27 +/- 1 degC and 70% RH; format: functional

## Clc1ccc(-c2cc(-c3ccccc3)on2)cc1
Callosobruchus chinensis [1]
  mortality at 1000 µg/mL: 65%

## COc1ccc(-c2cc(-c3ccccc3)no2)cc1
Callosobruchus chinensis [1]
  mortality at 1000 µg/mL: 66%

## Cc1ccc(-c2cc(-c3ccccc3)no2)cc1
Callosobruchus chinensis [1]
  mortality at 1000 µg/mL: 65%

## COc1ccc(-c2cc(-c3ccc(Cl)cc3)on2)cc1
Callosobruchus chinensis [1]
  mortality at 1000 µg/mL: 85%
Callosobruchus chinensis [2]
  LC50: 330 mg/L (≈ 1150 µM)

## Fc1ccc(-c2cc(-c3ccccc3)on2)cc1
Callosobruchus chinensis [1]
  mortality at 1000 µg/mL: 86%
Callosobruchus chinensis [2]
  LC50: 254 mg/L (≈ 1060 µM)

## Fc1ccc(-c2cc(-c3ccc(Cl)cc3)on2)cc1
Callosobruchus chinensis [1]
  mortality at 1000 µg/mL: 59%

## Cc1ccc(-c2cc(-c3ccc(F)cc3)no2)cc1
Callosobruchus chinensis [1]
  mortality at 1000 µg/mL: 67%

## COc1ccc(-c2cc(-c3ccc(F)cc3)no2)cc1
Callosobruchus chinensis [1]
  mortality at 1000 µg/mL: 88%
Callosobruchus chinensis [2]
  LC50: 289 mg/L (≈ 1070 µM)

## Clc1ccc(-c2cc(-c3ccc(Cl)cc3)on2)cc1
Callosobruchus chinensis [1]
  mortality at 1000 µg/mL: 90%
Callosobruchus chinensis [2]
  LC50: 134 mg/L (≈ 462 µM)

## Cc1ccc(-c2cc(-c3ccc(Cl)cc3)no2)cc1
Callosobruchus chinensis [1]
  mortality at 1000 µg/mL: 63%

## COc1ccc(-c2cc(-c3ccc(Cl)cc3)no2)cc1
Callosobruchus chinensis [1]
  mortality at 1000 µg/mL: 82%
Callosobruchus chinensis [2]
  LC50: 354 mg/L (≈ 1240 µM)

## Clc1ccccc1-c1cc(-c2ccccc2)on1
Callosobruchus chinensis [1]
  mortality at 1000 µg/mL: 78%
Callosobruchus chinensis [2]
  LC50: 36 mg/L (≈ 141 µM)

## Clc1ccc(-c2cc(-c3ccccc3Cl)no2)cc1
Callosobruchus chinensis [1]
  mortality at 1000 µg/mL: 85%
Callosobruchus chinensis [2]
  LC50: 338 mg/L (≈ 1160 µM)

## Cc1ccc(-c2cc(-c3ccccc3Cl)no2)cc1
Callosobruchus chinensis [1]
  mortality at 1000 µg/mL: 68%

## COc1ccc(-c2cc(-c3ccccc3Cl)no2)cc1
Callosobruchus chinensis [1]
  mortality at 1000 µg/mL: 86%
Callosobruchus chinensis [2]
  LC50: 110 mg/L (≈ 385 µM)

## COc1ccc(-c2cc(-c3ccccc3)on2)cc1
Callosobruchus chinensis [1]
  mortality at 1000 µg/mL: 58%

## COc1ccc(-c2cc(-c3ccc(C)cc3)on2)cc1
Callosobruchus chinensis [1]
  mortality at 1000 µg/mL: 84%
Callosobruchus chinensis [2]
  LC50: 93 mg/L (≈ 351 µM)

## COc1ccc(-c2cc(-c3ccc(OC)cc3)on2)cc1
Callosobruchus chinensis [1]
  mortality at 1000 µg/mL: 89%
Callosobruchus chinensis [2]
  LC50: 296 mg/L (≈ 1050 µM)

## Clc1ccc(-c2cc(-c3ccccc3)no2)cc1
Callosobruchus chinensis [1]
  mortality at 1000 µg/mL: 46%

## c1ccc(-c2cc(-c3ccccc3)on2)cc1 [3,5-DIPHENYLISOXAZOLE]
Callosobruchus chinensis [1]
  mortality at 1000 µg/mL: 67%

## COP(=O)(OC)OC=C(Cl)Cl [DICHLORVOS]
Callosobruchus chinensis [2]
  LC50: 155 mg/L (≈ 701 µM)

From ChEMBL document CHEMBL3046686, “Isoxazole derivatives as a potential insecticide for managing Callosobruchus chinensis” (2010)
